According to patent US20220252625A1, “TREATMENT AND DIAGNOSIS OF CHRONIC INFLAMMATORY CONDITIONS IN THE LOWER URINARY TRACT” (SELECTIMMUNE PHARMA AB, priority 2019, published 2022):
“Also recorded” adds a separate entry of the source.

Assays:
Format in all cases: in vivo, human
[1] = test system: patients with chronic cystitis and CPPS; experiment: Open Anakinra trial, symptom score
Method: The applicants have performed an open Anakinra trial in patients with chronic inflammatory conditions in the lower urinary tract, specifically chronic cystitis and CPPS. This structured observational study to investigate the effect of treatment with Anakinra in patients suffering from chronic cystitis and CPPS.
Inclusion visit: Patient is informed about the study and is included after signed informed consent is obtained. A structured interview and clinical investigation is performed. The disease severity is evaluated using a symptom score. Follow-up visits are booked.
A structured interview and clinical investigation is performed. Symptom severity is recorded.
Treatment with Anakinra is started and continued for seven days (until next visit).
Evaluation of effect after one week of treatment with Anakinra. A structured interview and clinical investigation are performed. Symptom severity is evaluated. Patients with no treatment effect are excluded from further treatment.
Follow-up after treatment pause. A structured interview and clinical investigation is performed. Symptom severity is evaluated. If the patient has relapse, Anakinra treatment is resumed.
Follow-up with evaluation of effect after three weeks of treatment with Anakinra. A structured interview and clinical investigation is performed. Symptom severity is evaluated.
Final visit after pause of treatment with Anakinra. A structured interview and clinical investigation is performed. Symptom severity is evaluated.
During patient visits, structured interviews evaluating symptoms (including consumption of medications) and clinical investigations are performed. Throughout the study period, the patients make daily symptom scores regarding pain, urination, sense of urgency and quality of life following a structured formula.

IL-1β = experiment: Urine IL-1β concentration, patients with chronic cystitis; settings: FIG. 5
Method: (§1) Samples: Blood and urine samples for investigation of inflammatory processes as well as genetic and proteomic analyses.
(§2) For evaluation of the levels of systemic and local inflammatory processes, analyses of CRP, neutrophil count and Interleukins are performed in serum and urine.
(§3) To be able to define a treatment group where anakinra might serve as an effective therapeutic option, we searched for urine biomarkers. In addition to patient urine samples, samples were collected from healthy controls to compare urine concentrations of IL-1β and Substance P (SP). […] In contrast, SP concentrations was increased in patients during maximum symptoms (209 vs 75 pg/ml, P=0.003), indicating a biomarker for bladder inflammation (FIG. 2).

[2] = test system: patients with chronic pelvic pain syndrome (CPPS); experiment: Investigator driven open trial, ten CPPS patients: symptoms, quality of life, side effects
Method: Here we identify that IL-1RA treatment may be useful to alleviate bladder pain. The hypothesis was evaluated by enrolling ten patients with chronic pelvic pain syndrome, (CPPS) in an investigator driven open trial (see below and FIG. 7). The patients received daily anakinra treatment (100 mg) until a stable response was observed. Treatment was then transiently interrupted and when the symptoms returned, treatment was resumed. Patient 10 remained asymptomatic.
Ten patients with a long history of CPPS were enrolled after informed consent (age, gender, disease profile) and instructed to fill in a questionnaire detailing frequency of urination, pain, frequency of pain medication and quality of life.
A significant reduction in pain, urgency and frequency of urination was recorded in 9/10 patients (FIGS. 7c, 7d and 7e). Laboratory samples were obtained at diagnosis, after the initiation of anakinra treatment (n=10), during the “treatment break” and after continuation of anakinra treatment (n=9). Urine neuropeptides involved in the pain response (Substance P) were inhibited, with a biphasic response following the symptom score (FIG. 7f).

Substance P = experiment: Urine Substance P (SP) concentration, patients with chronic cystitis
Method: as §1, §2, §3

[3] = test system: neuro-inflammation, TLR dependent pattern recognition and IL-1 signaling; IL-1R1 dependent gene network; experiment: BPS trial: transcriptomic analysis of peripheral blood RNA; settings: for gene expression, words: peripheral blood RNA
Excerpt: (§4) a) Schematic of the study protocol. Ten patients with a long history of BPS (ref EAU guidelines) were enrolled after informed consent and instructed to fill in a questionnaire detailing frequency of urination, pain, frequency of pain medication and quality of life. Laboratory samples were obtained at diagnosis, after the initiation of Kineret treatment (n=10), during the “treatment break” and after continuation of Kineret treatment (n=9). Neuropeptides involved in the pain response (Substance P) were quantified in urine. Peripheral blood RNA was subjected to genome wide transcriptomic analysis to define molecular effects of Kineret treatment.
To further understand the molecular basis of these effects, gene expression was analyzed longitudinally in RNA samples obtained; at onset, when the patients were in pain; at the time of maximum treatment effect in the first round; when pain returned during the treatment break; after reintroduction of Anakinra and at follow up, after 1-2 years of treatment. […] Due to the pronounced effect on IL-1 related genes, we further investigated a gene network downstream of IL-1R1. In 8 out of 10 patients a marked reduction in IL-1R1 dependent gene expression was detected, primarily genes including CXCL1, IL1RAP CXCL3 and the IL1R1 gene itself.

[4] = test system: patients with bladder pain syndrome (BPS); experiment: Open label trial, ten BPS patients: symptoms, quality of life, side effects
Method: The inventors have tested the hypothesis that IL-1RA treatment may be useful to alleviate bladder pain. Ten patients with BPS were enrolled in an investigator-driven open trial. The patients received daily Kineret treatment (100 mg) for seven days. Treatment was then transiently interrupted and if the symptoms returned, treatment was resumed.
as §4
In this study, we addressed if IL-1RA treatment might be efficient in patients with chronic bladder pain. We conducted an explorative, open label trial in patients with BPS (Table 5). Patients received daily subcutaneous injections of Anakinra (100 mg) for seven days and the therapeutic effects were recorded. To address potential placebo effects, treatment was transiently interrupted for a maximum of 14 days and when the symptoms returned, treatment was resumed and continued with individual treatment regimes. […] In the remaining patients, bladder pathology was not detected. During the study, patients were instructed to keep a symptom journal recording the sensation of pain and the frequency of micturition.

Question: Which “patients in whom treatment was proven effective (decrease in symptom scoring)” value ([1]; in vivo) does the source give for “anakinra: interleukin-1 receptor antagonist (r-metHuIL-1ra) produced in Escherichia coli; recombinant, slightly modified version of the human interleukin-1 receptor antagonist protein” here?
Answer: Its value is 60%.

Question: And the “Symptom Score Decrease at 1 week of treatment (number of patients)” value ([1]; of 15 patients recruited)?
Answer: Its value is 9.

Question: And the “Symptom Score No Decrease at 1 week of treatment (number of patients)” value ([1]; of 15 patients recruited)?
Answer: The value was 6.

Question: What about the “urine IL-1β levels after Anakinra treatment” value (IL-1β) of the same substance?
Answer: The value was “do not change”.

Question: What about the “symptom score (pain and frequency), words” value ([2]; P<0.01) of the same substance?
Answer: Its value is “reduction in symptom score”.

Question: What about the “quality of life, words” value ([2]; P<0.02) of the same substance?
Answer: Its value is “increase in quality of life”.

Question: What about the “patients with dramatic clinical effects” value ([2]; daily 100 mg, ten CPPS patients) of the same substance?
Answer: Its value is 9/10.

Question: What about the “duration of symptom relief” value ([2]; range over patients) of the same substance?
Answer: Its value is 0.5 to 8 days.

Question: And the “time to symptom relief after the first dose” value ([2]; range over patients)?
Answer: Its value is 1 to 6 h.

Question: What about the “patients with significant reduction in pain, urgency and frequency of urination” value ([2]; ten CPPS patients) of the same substance?
Answer: The value was 9/10.

Question: What about the side effects ([2]; ten CPPS patients, 100 mg) of the same substance?
Answer: Its side effects is “Two patients reported local irritation at the injection site; also recorded: one patient developed neutropenia”.

Question: What about the “urine SP levels after Anakinra treatment” value (Substance P; FIG. 3) of the same substance?
Answer: The value was “reduced”.

Question: What about the “urine SP concentration at time of minimum symptom, after treatment” value (Substance P; paired samples, P=0.02) of the same substance?
Answer: The value was 136 pg/mL.

Question: What about the “urine SP concentration at time of maximum symptom” value (Substance P; paired samples, baseline of the comparison, P=0.02) of the same substance?
Answer: Its value is 243 pg/mL.

Question: And the “patients with marked reduction in IL-1R1 dependent gene expression” value ([3]; genes including CXCL1, IL1RAP, CXCL3, IL1R1)?
Answer: Its value is 8 out of 10.

Question: What about the “gene expression, words” value [3] of the same substance?
Answer: The value was “inhibited by treatment”.

Question: What about the “gene expression, words” value ([3]; listed as Kineret) of the same substance?
Answer: Its value is “inhibited”.

Question: What about the “patients with dramatic clinical improvement” value ([4]; daily 100 mg for seven days, ten BPS patients) of the same substance?
Answer: Its value is 9/10.

Question: And the lasting therapeutic effects ([4]; human, in vivo)?
Answer: Its lasting therapeutic effects is 3 days.

Question: What about the “quality of life, words” value ([4]; human, in vivo) of the same substance?
Answer: The value was “increased quality of life”.

Question: What about the side effects ([4]; human, in vivo) of the same substance?
Answer: The side effects was “Two patients reported local irritation at the injection site”.

Question: What about the “symptom score (pain and frequency), words” value ([4]; human, in vivo) of the same substance?
Answer: Its value is “reduction in symptom score”.

Question: And the “quality of life, words” value ([4]; human, in vivo, listed as Kineret)?
Answer: The value was “marked increase in quality of life”.

Question: And the “symptom relief at the onset of treatment, median” value ([4]; median)?
Answer: The value was 2 h.

Question: And the “patients with complete, or close to complete clinical response” value ([4]; of ten patients)?
Answer: The value was “Nine of the patients”.

Question: What about the “relief of symptoms after the first injection” value ([4]; one patient with very severe BPS/ICS) of the same substance?
Answer: Its value is 1 to 2 h.

Question: What about the “duration of symptom relief” value ([4]; range over patients) of the same substance?
Answer: Its value is 0.5 to 8 days.

Question: What about the “time to symptom relief after the first dose” value ([4]; range over patients) of the same substance?
Answer: Its value is 1 to 6 h.
